Data on 24 compounds can be found in patent US20100311714A1, “1H-IMIDAZO[4,5-c]QUINOLINONE COMPOUNDS” (priority 2009, published 2010).

One test has as its target T1, PI3K delta (Homo sapiens, UniProt O00329).
T1 construct: for the full-length p110-d subunit are generated and fused by overlapping PCR; His tag (C); made in house; host or cells: baculovirus BV1060; Tn5 (Trichoplusia ni) or TiniPro insect cells
Description: PI3K delta kinase assay (Kinase-Glo luminescence). It is filed as biochemical. The following applies: read-out: EPK_PI3Kdelta/IC50. A digest of the protocol: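 Kinase-Glo ATP-depletion luminescence using 10 nM p85(iSH2)-linker-p110δ full-length His-tag construct from insect cells, with 1 μM ATP and 10 μg/mL phosphatidylinositol in 10 mM Tris pH 7.5, 3 mM MgCl2, 50 mM NaCl, 0.05% CHAPS, 1 mM DTT. 60 min room temperature; IC50 from 4-parameter logistic fit over 8 concentrations.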

The target of another test is T2, mTOR (Homo sapiens, UniProt P42345).
T2 construct: purchased Invitrogen Corporation (Carlsbad/Calif., USA) PV4753
T2 sequence (P42345 1360-2549 limits assumed): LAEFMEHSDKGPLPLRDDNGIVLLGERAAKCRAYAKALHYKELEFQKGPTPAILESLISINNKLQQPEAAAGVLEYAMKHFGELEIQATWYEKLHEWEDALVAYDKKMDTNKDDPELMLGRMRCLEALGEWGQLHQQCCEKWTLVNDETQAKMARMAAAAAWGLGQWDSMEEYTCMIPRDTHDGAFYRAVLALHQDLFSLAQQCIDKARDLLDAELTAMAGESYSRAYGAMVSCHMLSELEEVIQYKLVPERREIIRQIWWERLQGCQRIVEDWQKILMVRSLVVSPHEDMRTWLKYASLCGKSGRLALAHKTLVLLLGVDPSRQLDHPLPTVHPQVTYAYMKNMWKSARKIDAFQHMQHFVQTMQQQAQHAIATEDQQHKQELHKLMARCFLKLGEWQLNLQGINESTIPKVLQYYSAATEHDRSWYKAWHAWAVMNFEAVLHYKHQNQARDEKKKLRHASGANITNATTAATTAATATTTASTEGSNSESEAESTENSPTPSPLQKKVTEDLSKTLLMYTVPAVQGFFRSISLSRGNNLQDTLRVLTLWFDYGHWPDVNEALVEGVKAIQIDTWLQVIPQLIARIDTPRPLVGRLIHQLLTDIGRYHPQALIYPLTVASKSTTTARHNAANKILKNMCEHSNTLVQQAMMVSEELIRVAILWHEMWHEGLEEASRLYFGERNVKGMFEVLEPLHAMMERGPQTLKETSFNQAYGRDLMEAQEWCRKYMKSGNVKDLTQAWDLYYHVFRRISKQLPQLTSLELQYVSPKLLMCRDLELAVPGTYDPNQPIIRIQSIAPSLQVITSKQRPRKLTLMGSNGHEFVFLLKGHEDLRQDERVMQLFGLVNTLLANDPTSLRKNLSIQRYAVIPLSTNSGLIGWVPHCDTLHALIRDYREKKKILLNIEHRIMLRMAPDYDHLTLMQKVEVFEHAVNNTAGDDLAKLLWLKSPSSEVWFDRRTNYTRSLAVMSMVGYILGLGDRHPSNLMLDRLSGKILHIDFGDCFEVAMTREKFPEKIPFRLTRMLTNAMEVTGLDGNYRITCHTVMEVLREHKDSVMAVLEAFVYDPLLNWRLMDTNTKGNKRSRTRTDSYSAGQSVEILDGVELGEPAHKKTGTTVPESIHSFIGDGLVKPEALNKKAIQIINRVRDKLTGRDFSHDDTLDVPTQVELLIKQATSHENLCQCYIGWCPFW
As to the kind of experiment: Biochemical assay for m-TOR by TR-FRET. Particulars: read-out: EPK_mTOR/IC50. The method, boiled down:
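mTOR (0.5 nM) phosphorylates GFP-4EBP1 (400 nM) with 8 μM ATP at rt in 50 mM HEPES pH 7.5, 10 mM MnCl2, 50 mM NaCl, 1 mM EGTA, 1 mM DTT; compounds 0.003–10 μM final. EDTA stop with Tb-anti-p4EBP1[pT46] antibody (0.5 nM); TR-FRET read after 15 min against no-enzyme and vehicle controls.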
Background: Time-resolved FRET reads energy transfer from a long-lived donor to a nearby acceptor.

T1 sequence (O00329 with tags, fused parts or gaps limits assumed): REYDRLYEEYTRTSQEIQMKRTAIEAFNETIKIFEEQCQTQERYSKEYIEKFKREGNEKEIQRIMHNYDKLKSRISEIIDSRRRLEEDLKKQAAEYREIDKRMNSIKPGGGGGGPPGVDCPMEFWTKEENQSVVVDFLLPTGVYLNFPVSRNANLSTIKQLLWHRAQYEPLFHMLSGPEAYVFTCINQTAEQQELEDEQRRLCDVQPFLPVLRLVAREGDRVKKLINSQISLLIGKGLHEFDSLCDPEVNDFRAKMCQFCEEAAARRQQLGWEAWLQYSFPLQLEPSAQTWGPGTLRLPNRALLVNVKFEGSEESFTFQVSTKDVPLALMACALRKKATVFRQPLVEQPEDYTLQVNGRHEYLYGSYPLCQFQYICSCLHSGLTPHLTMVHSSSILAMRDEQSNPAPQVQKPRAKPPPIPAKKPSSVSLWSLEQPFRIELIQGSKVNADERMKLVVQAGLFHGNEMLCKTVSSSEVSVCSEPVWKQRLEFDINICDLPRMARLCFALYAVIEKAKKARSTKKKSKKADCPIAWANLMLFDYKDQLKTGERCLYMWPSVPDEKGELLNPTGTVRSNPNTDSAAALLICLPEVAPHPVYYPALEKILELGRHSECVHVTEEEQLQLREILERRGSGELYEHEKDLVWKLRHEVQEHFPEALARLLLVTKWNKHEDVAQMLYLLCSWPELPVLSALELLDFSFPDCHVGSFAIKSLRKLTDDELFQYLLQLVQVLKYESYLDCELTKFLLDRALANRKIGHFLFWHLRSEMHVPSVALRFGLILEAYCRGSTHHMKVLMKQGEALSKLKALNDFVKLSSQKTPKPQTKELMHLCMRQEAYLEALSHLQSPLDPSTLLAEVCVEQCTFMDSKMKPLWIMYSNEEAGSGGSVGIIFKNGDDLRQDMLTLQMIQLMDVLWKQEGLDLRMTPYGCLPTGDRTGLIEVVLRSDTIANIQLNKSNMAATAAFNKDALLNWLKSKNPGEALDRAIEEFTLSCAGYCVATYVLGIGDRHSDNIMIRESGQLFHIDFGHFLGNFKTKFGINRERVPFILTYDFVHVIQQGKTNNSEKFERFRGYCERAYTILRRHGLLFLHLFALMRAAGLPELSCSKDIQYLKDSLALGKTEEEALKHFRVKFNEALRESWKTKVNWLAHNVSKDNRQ

For the compound `CNc1ncc(-c2ccc3ncc4c(c3c2)n(-c2ccc(OCCOC)nc2C)c(=O)n4C)cn1` [Example 13.5, 1-[6-(2-Methoxy-ethoxy)-2-methyl-pyridin-3-yl]-3-methyl-8-(2-methylamino-pyrimidin-5-yl)-1,3-dihydro-imidazo[4,5-c]quinolin-2-one], the IC50 was 60 nM at PI3K delta and 39 nM at mTOR.

As to `CCOc1ccc(-c2ccc3ncc4c(c3c2)n(-c2ccc(C)nc2C)c(=O)n4C)cn1` [Example 14.2, 1-(2,6-Dimethyl-pyridin-3-yl)-8-(6-ethoxy-pyridin-3-yl)-3-methyl-1,3-dihydro-imidazo[4,5-c]quinolin-2-one], the IC50 at PI3K delta was 30 nM; on mTOR, 26 nM.

For `Cc1ccc(-n2c(=O)n(C)c3cnc4ccc(-c5cnc(N(C)C)nc5)cc4c32)c(C)n1` [Example 14.3, 8-(2-Dimethylamino-pyrimidin-5-yl)-1-(2,6-dimethyl-pyridin-3-yl)-3-methyl-1,3-dihydro-imidazo[4,5-c]quinolin-2-one], the IC50 at PI3K delta came out at 49 nM; at mTOR, 48 nM.

Take `CNc1ncc(-c2ccc3ncc4c(c3c2)n(-c2ccc(C)nc2C)c(=O)n4C)cn1` [Example 14.4, 1-(2,6-Dimethyl-pyridin-3-yl)-3-methyl-8-(2-methylamino-pyrimidin-5-yl)-1,3-dihydro-imidazo[4,5-c]quinolin-2-one]: the IC50 on PI3K delta came to 44 nM; at mTOR it was 14 nM.

Turning to `Cc1ccc(-n2c(=O)n(C)c3cnc4ccc(-c5cnc(N)c(C(F)(F)F)c5)cc4c32)c(C)n1` [Example 14.5, 8-(6-Amino-5-trifluoromethyl-pyridin-3-yl)-1-(2,6-dimethyl-pyridin-3-yl)-3-methyl-1,3-dihydro-imidazo[4,5-c]quinolin-2-one], the IC50 on PI3K delta stood at 7 nM; on mTOR, 17 nM.

For the compound `CCNc1cc(-c2ccc3ncc4c(c3c2)n(-c2ccc(C)nc2C)c(=O)n4C)cnc1C` [Example 14.6, 1-(2,6-Dimethyl-pyridin-3-yl)-8-(5-ethylamino-6-methyl-pyridin-3-yl)-3-methyl-1,3-dihydro-imidazo[4,5-c]quinolin-2-one], the IC50 came to 20 nM on PI3K delta and 6 nM at mTOR.

Take `Cc1ccc(-n2c(=O)n(C)c3cnc4ccc(-c5cnc6c(ccn6C)c5)cc4c32)c(C)n1` [Example 14.7, 1-(2,6-Dimethyl-pyridin-3-yl)-3-methyl-8-(1-methyl-1H-pyrrolo[2,3-b]pyridin-5-yl)-1,3-dihydro-imidazo[4,5-c]quinolin-2-one]: the figures for the IC50 at PI3K delta and on mTOR were 28 nM and 13 nM, respectively.

For `Cc1ccc(-n2c(=O)n(C)c3cnc4ccc(-c5cncc(NC(C)C)c5)cc4c32)c(C)n1` [Example 14.8, 1-(2,6-Dimethyl-pyridin-3-yl)-8-(5-isopropylamino-pyridin-3-yl)-3-methyl-1,3-dihydro-imidazo[4,5-c]quinolin-2-one], the IC50 on PI3K delta was found to be 46 nM; on mTOR, 28 nM.

On to `COCCN(C)c1ccc(-n2c(=O)n(C)c3cnc4ccc(-c5cnc(N)c(C(F)(F)F)c5)cc4c32)c(C)n1` [Example 15.1, 8-(6-Amino-5-trifluoromethyl-pyridin-3-yl)-1-{6-[(2-methoxy-ethyl)-methyl-amino]-2-methyl-pyridin-3-yl}-3-methyl-1,3-dihydro-imidazo[4,5-c]quinolin-2-one], for which the IC50 on PI3K delta turned out to be 7 nM; on mTOR, 8 nM.

For the compound `CNc1ncc(-c2ccc3ncc4c(c3c2)n(-c2ccc(N(C)CCOC)nc2C)c(=O)n4C)cn1` [Example 15.2, 1-{6-[(2-Methoxy-ethyl)-methyl-amino]-2-methyl-pyridin-3-yl}-3-methyl-8-(2-methylamino-pyrimidin-5-yl)-1,3-dihydro-imidazo[4,5-c]quinolin-2-one], the figures for the IC50 on PI3K delta and at mTOR were 32 nM and 7 nM, respectively.

For the compound `CCOc1ccc(-c2ccc3ncc4c(c3c2)n(-c2ccc(N(C)CCOC)nc2C)c(=O)n4C)cn1` [Example 15.3, 8-(6-Ethoxy-pyridin-3-yl)-1-{6-[(2-methoxy-ethyl)-methyl-amino]-2-methyl-pyridin-3-yl}-3-methyl-1,3-dihydro-imidazo[4,5-c]quinolin-2-one], the figures for the IC50 on PI3K delta and at mTOR were 117 nM and 120 nM, respectively.

As for `CNc1ccc(-c2ccc3ncc4c(c3c2)n(-c2ccc(N(C)CCOC)nc2C)c(=O)n4C)cn1` [Example 15.4, 1-{6-[(2-Methoxy-ethyl)-methyl-amino]-2-methyl-pyridin-3-yl}-3-methyl-8-(6-methylamino-pyridin-3-yl)-1,3-dihydro-imidazo[4,5-c]quinolin-2-one], the results for the IC50 at PI3K delta and at mTOR were 36 nM and 11 nM, respectively.

Turning to `COCCN(C)c1ccc(-n2c(=O)n(C)c3cnc4ccc(-c5cnc(N(C)C)nc5)cc4c32)c(C)n1` [Example 15.5, 8-(2-Dimethylamino-pyrimidin-5-yl)-1-{6-[(2-methoxy-ethyl)-methyl-amino]-2-methyl-pyridin-3-yl}-3-methyl-1,3-dihydro-imidazo[4,5-c]quinolin-2-one], the IC50 was determined as 44 nM on PI3K delta and 71 nM on mTOR.

For the compound `CCNc1cc(-c2ccc3ncc4c(c3c2)n(-c2ccc(N(C)CCOC)nc2C)c(=O)n4C)cnc1C` [Example 15.6, 8-(5-Ethylamino-6-methyl-pyridin-3-yl)-1-{6-[(2-methoxy-ethyl)-methyl-amino]-2-methyl-pyridin-3-yl}-3-methyl-1,3-dihydro-imidazo[4,5-c]quinolin-2-one], the IC50 at PI3K delta was found to be 9 nM; on mTOR, 6 nM.

Regarding `COCCN(C)c1ccc(-n2c(=O)n(C)c3cnc4ccc(-c5cnc6c(ccn6C)c5)cc4c32)c(C)n1` [Example 15.7, 1-{6-[(2-Methoxy-ethyl)-methyl-amino]-2-methyl-pyridin-3-yl}-3-methyl-8-(1-methyl-1H-pyrrolo[2,3-b]pyridin-5-yl)-1,3-dihydro-imidazo[4,5-c]quinolin-2-one], the IC50 at PI3K delta turned out to be 21 nM; at mTOR, 75 nM.

`COCCN(C)c1ccc(-n2c(=O)n(C)c3cnc4ccc(-c5cncc(N)c5)cc4c32)c(C)n1` [Example 15.8, 8-(5-Amino-pyridin-3-yl)-1-{6-[(2-methoxy-ethyl)-methyl-amino]-2-methyl-pyridin-3-yl}-3-methyl-1,3-dihydro-imidazo[4,5-c]quinolin-2-one]: the figures for the IC50 on PI3K delta and on mTOR were 45 nM and 11 nM, respectively.

`COCCN(C)c1ccc(-n2c(=O)n(C)c3cnc4ccc(-c5cnc(CO)c(OC)c5)cc4c32)c(C)n1` [Example 15.9, 8-(6-Hydroxymethyl-5-methoxy-pyridin-3-yl)-1-{6-[(2-methoxy-ethyl)-methyl-amino]-2-methyl-pyridin-3-yl}-3-methyl-1,3-dihydro-imidazo[4,5-c]quinolin-2-one]: the figures for the IC50 on PI3K delta and at mTOR were 40 nM and 119 nM, respectively.

In the case of `Cc1cc(F)ncc1-n1c(=O)n(C)c2cnc3ccc(-c4cnc(N)c(C(F)(F)F)c4)cc3c21` [Example 16.1, 8-(6-Amino-5-trifluoromethyl-pyridin-3-yl)-1-(6-fluoro-4-methyl-pyridin-3-yl)-3-methyl-1,3-dihydro-imidazo[4,5-c]quinolin-2-one], the values for the IC50 at PI3K delta and at mTOR were 27 nM and 110 nM, respectively.

As to `CCNc1cc(-c2ccc3ncc4c(c3c2)n(-c2cnc(F)cc2C)c(=O)n4C)cnc1C` [Example 16.2, 8-(5-Ethylamino-6-methyl-pyridin-3-yl)-1-(6-fluoro-4-methyl-pyridin-3-yl)-3-methyl-1,3-dihydro-imidazo[4,5-c]quinolin-2-one], the IC50 at PI3K delta is 27 nM; on mTOR, 53 nM.

As to `CNc1ncc(-c2ccc3ncc4c(c3c2)n(-c2cnc(F)cc2C)c(=O)n4C)cn1` [Example 16.3, 1-(6-Fluoro-4-methyl-pyridin-3-yl)-3-methyl-8-(2-methylamino-pyrimidin-5-yl)-1,3-dihydro-imidazo[4,5-c]quinolin-2-one], the IC50 at PI3K delta was 113 nM; at mTOR it was 151 nM.

On to `CNc1ccc(-c2ccc3ncc4c(c3c2)n(-c2cnc(F)cc2C)c(=O)n4C)cn1` [Example 16.4, 1-(6-Fluoro-4-methyl-pyridin-3-yl)-3-methyl-8-(6-methylamino-pyridin-3-yl)-1,3-dihydro-imidazo[4,5-c]quinolin-2-one], for which the IC50 came out at 207 nM at PI3K delta and 704 nM on mTOR.

For the compound `Cc1cc(F)ncc1-n1c(=O)n(C)c2cnc3ccc(-c4cnc5c(ccn5C)c4)cc3c21` [Example 16.5, 1-(6-Fluoro-4-methyl-pyridin-3-yl)-3-methyl-8-(1-methyl-1H-pyrrolo[2,3-b]pyridin-5-yl)-1,3-dihydro-imidazo[4,5-c]quinolin-2-one], the IC50 at PI3K delta was determined as 39 nM; on mTOR, 622 nM.

On to `CCOc1ccc(-c2ccc3ncc4c(c3c2)n(-c2cncc(C)c2)c(=O)n4C)cn1` [Example 17.1, 8-(6-Ethoxy-pyridin-3-yl)-3-methyl-1-(5-methyl-pyridin-3-yl)-1,3-dihydro-imidazo[4,5-c]quinolin-2-one], for which the values for the IC50 on PI3K delta and on mTOR were 275 nM and 484 nM, respectively.

With `CCNc1cc(-c2ccc3ncc4c(c3c2)n(-c2ccc(OC)nc2Cl)c(=O)n4C)cnc1C` [Example 18.1, 1-(2-Chloro-6-methoxy-pyridin-3-yl)-8-(5-ethylamino-6-methyl-pyridin-3-yl)-3-methyl-1,3-dihydro-imidazo[4,5-c]quinolin-2-one], the IC50 on PI3K delta amounted to 22 nM; at mTOR it was 13 nM.
